Publication PMC11855827, “High-Throughput Screening of Five Compound Libraries for Anthelmintic Activity and Toxicity Leads to the Discovery of Two Flavonoid Compounds” (International Journal of Molecular Sciences, 2025)
Values joined by “and” are separate entries in the source; they are usually repeats but may differ in a detail not shown here. Equal values may be shown once. Read-outs that look alike come from different tables or passages of the source.

System: C. elegans
[1] = Table S2, C. elegans SS assay, 110 μM, 0 h, averages of 4 data points
[2] = Table S2, C. elegans SS assay, 110 μM, 24 h, averages of 4 data points

CN(C)[C@@H]1C(=O)C(C(N)=O)=C(O)[C@@]2(O)C(=O)C3=C(O)c4c(O)ccc(Cl)c4[C@@](C)(O)[C@H]3C[C@@H]12.Cl [Chlortetracycline (hydrochloride)]
Percentage of motility inhibition 0 h [1]: 24%
Percentage of motility inhibition 24 h [2]: 5%

CN1CC[C@@]23C=C[C@H](O)C[C@@H]2Oc2c(O)ccc(c23)C1 [O‐Desmethyl Galantha mine]
Percentage of motility inhibition 0 h [1]: 4%
Percentage of motility inhibition 24 h [2]: 5%

CN1[C@@H]2CC[C@H]1C[C@@H](OC(=O)C(CO)c1ccccc1)C2 (stereo partly drawn) [Atropine]
Percentage of motility inhibition 0 h (110 µM): 3% and 0%
Percentage of motility inhibition 24 h (110 µM): 3% and 8%

COc1cc2oc3cc(O)c(OC)c(CC=C(C)C)c3c(=O)c2c(O)c1CC=C(C)C [beta‐Mangostin]
Percentage of motility inhibition 0 h [1]: 30%
Percentage of motility inhibition 24 h [2]: 0%

O=C([O-])c1cc(/N=N/c2ccc(O)c(C(=O)[O-])c2)ccc1O.[Na+].[Na+] [Olsalazine (Disodium)]
Percentage of motility inhibition 0 h [1]: 6%
Percentage of motility inhibition 24 h [2]: 12%

CC(C)=CCc1c(O)cc2c(c1O)C(=O)C[C@@H](c1ccc(O)cc1)O2 [(2S)‐6‐Prenylnaringenin]
Percentage of motility inhibition 0 h [1]: 0%
Percentage of motility inhibition 24 h [2]: 0%

CN[C@H](CC(C)C)C(=O)N[C@H]1C(=O)N[C@@H](CC(N)=O)C(=O)N[C@H]2C(=O)N[C@H]3C(=O)N[C@H](C(=O)N[C@H](C(=O)O)c4cc(O)cc(O)c4-c4cc3ccc4O)[C@H](O)c3ccc(c(Cl)c3)Oc3cc2cc(c3O[C@@H]2O[C@H](CO)[C@@H](O)[C@H](O)[C@H]2O[C@H]2C[C@](C)(N)[C@H](O)[C@H](C)O2)Oc2ccc(cc2Cl)[C@H]1O.Cl [Vancomycin (hydrochloride)]
Percentage of motility inhibition 0 h [1]: 15%
Percentage of motility inhibition 24 h [2]: 0%

CSC(=O)OCC1=C[C@@H]2OC(=O)C3=CO[C@@H](O[C@@H]4O[C@H](CO)[C@@H](O)[C@H](O)[C@H]4O)[C@H]1[C@@H]32 [Paederoside]
Percentage of motility inhibition 0 h [1]: 9%
Percentage of motility inhibition 24 h [2]: 4%

CC1(C)CC[C@@]2(CO)C(=C3C=C[C@@H]4[C@@]5(C)CC[C@H](O)[C@@](C)(CO)[C@@H]5CC[C@@]4(C)[C@]3(C)C[C@H]2O)C1 [Saikogenin D]
Percentage of motility inhibition 0 h [1]: 27%
Percentage of motility inhibition 24 h [2]: 14%

CC1(COC(=O)c2ccccc2)CCC2(C)CCC3(C)C4=CCC5C(C)(CCC(OC(=O)c6ccccc6)C5(C)C)C4=CCC3(C)C2C1 (stereo not drawn) [3,29-O-Dibenzoyloxykarounidiol]
Percentage of motility inhibition 0 h [1]: 15%
Percentage of motility inhibition 24 h [2]: 9%

CC1(C)CC[C@]2(C(=O)O)CC[C@]3(C)C(=CC[C@@H]4[C@@]5(C)CC[C@H](O[C@@H]6O[C@H](C(=O)O)[C@@H](O)[C@H](O[C@@H]7OC[C@@H](O)[C@H](O)[C@H]7O)[C@H]6O)C(C)(C)[C@@H]5CC[C@]43C)[C@@H]2C1 [Momordin Ic]
Percentage of motility inhibition 0 h [1]: 12%
Percentage of motility inhibition 24 h [2]: 4%

COc1ccc([C@@H]2CC(=O)c3c(O)cc(O[C@@H]4O[C@H](CO[C@@H]5O[C@@H](C)[C@H](O)[C@@H](O)[C@H]5O)[C@@H](O)[C@H](O)[C@H]4O)cc3O2)cc1O [Hesperidin]
Percentage of motility inhibition 24 h [2]: 2% and 0%

C[C@@]12CCc3occc3[C@H]1CC[C@@]13C[C@@H](CC[C@H]12)[C@@](O)(CO)C3 [Cafestol]
Percentage of motility inhibition 0 h [1]: 0%
Percentage of motility inhibition 24 h [2]: 28%

CC(=O)[C@H]1CC[C@H]2[C@@H]3CC=C4C[C@@H](O)CC[C@]4(C)[C@H]3CC[C@]12C [Pregnenolone]
Percentage of motility inhibition 0 h [1]: 11%
Percentage of motility inhibition 24 h [2]: 4%

CC1(C)C=Cc2c(ccc(C(=O)/C=C/c3ccc(O)cc3)c2O)O1 [4‐Hydroxylonchocarpin]
Percentage of motility inhibition 0 h [1]: 11%
Percentage of motility inhibition 24 h [2]: 9%

COc1cc2c(cc1O)[C@@H]1Cc3ccc(OC)c(OC)c3CN1CC2 [(‐)‐Isocorypalmine]
Percentage of motility inhibition 0 h [1]: 0%
Percentage of motility inhibition 24 h [2]: 0%

C[C@]1(O[C@H]2O[C@H](CO)[C@H](O)[C@H](O)[C@H]2O)C[C@@H](O)[C@@H]2C=CO[C@@H](O[C@@H]3O[C@H](CO)[C@@H](O)[C@H](O)[C@H]3O)[C@@H]21 [Rehmannioside C]
Percentage of motility inhibition 0 h [1]: 0%
Percentage of motility inhibition 24 h [2]: 8%

COc1ccc2c(c[n+](C)c3c4cc5c(cc4ccc23)OCO5)c1OC.[Cl-] [Chelerythrine (chloride)]
Percentage of motility inhibition 0 h [1]: 17%
Percentage of motility inhibition 24 h [2]: 22%

Cc1ccc(NC(=O)C(=O)NC2CC(C)(C)NC(C)(C)C2)cc1 [YYA‐021]
Percentage of motility inhibition 0 h [1]: 44%
Percentage of motility inhibition 24 h [2]: 39%

CCC1=C[C@@H]2CN(C1)Cc1c([nH]c3ccccc13)[C@@](C(=O)OC)(c1cc3c(cc1OC)N(C)[C@H]1[C@@](O)(C(=O)OC)[C@H](OC(C)=O)[C@]4(CC)C=CCN5CC[C@]31[C@@H]54)C2.O=C(O)C(O)C(O)C(=O)O.O=C(O)C(O)C(O)C(=O)O [Vinorelbine (ditartrate)]
Percentage of motility inhibition 0 h [1]: 0%

COc1cccc2c1C(=O)c1c(O)c3c(c(O)c1C2=O)C[C@@](O)(C(=O)CO)C[C@@H]3O[C@H]1C[C@H](N)[C@H](O)[C@H](C)O1.Cl [Doxorubicin (hydrochloride)]
Percentage of motility inhibition 0 h [1]: 13%
Percentage of motility inhibition 24 h [2]: 4%

Ginkgolide B
Percentage of motility inhibition 0 h [1]: 4%
Percentage of motility inhibition 24 h [2]: 7%

C=C(C)[C@@H]1CC=C(CO)CC1 [Perillyl alcohol]
Percentage of motility inhibition 0 h [1]: 0%
Percentage of motility inhibition 24 h [2]: 6%

CN1C2=C3N=c4ccccc4=C3CCN2C(=O)c2ccccc21.Cl [Dehydroevodiamine (hydrochloride)]
Percentage of motility inhibition 0 h [1]: 8%
Percentage of motility inhibition 24 h [2]: 1%

CC(C)(O[C@@H]1O[C@H](CO)[C@@H](O)[C@H](O)[C@H]1O)[C@@H]1CC[C@](O)(CO)[C@H]2CC(=O)[C@@](C)(O)[C@@H]2C1 [Atractyloside A]
Percentage of motility inhibition 0 h [1]: 13%
Percentage of motility inhibition 24 h [2]: 28%

Cl.OC[C@H]1NC[C@@H](O)[C@@H](O)[C@@H]1O [1‐Deoxymannojirimycin (hydrochloride)]
Percentage of motility inhibition 0 h [1]: 32%
Percentage of motility inhibition 24 h [2]: 11%

COC(=O)C1=CO[C@@H](O[C@@H]2O[C@H](CO[C@@H]3O[C@H](CO)[C@@H](O)[C@H](O)[C@H]3O)[C@@H](O)[C@H](O)[C@H]2O)[C@@H]2C(CO)=CC[C@H]12 [Genipin 1-β-D-gentiobioside]
Percentage of motility inhibition 0 h [1]: 0%
Percentage of motility inhibition 24 h [2]: 17%

COc1ccc([C@@H]2CC(=O)c3c(O)cc(O[C@@H]4O[C@H](CO[C@@H]5O[C@@H](C)[C@H](O)[C@@H](O)[C@H]5O)[C@@H](O)[C@H](O)[C@H]4O)cc3O2)cc1 [Didymin]
Percentage of motility inhibition 0 h [1]: 1%
Percentage of motility inhibition 24 h [2]: 6%

CC(=O)O[C@@H](C[C@@H](C)C1=C2C[C@H](O)[C@H]3[C@@]4(C)CCC(=O)C(C)(C)[C@@H]4CC[C@]3(C)[C@@]2(C)CC1=O)[C@H]1OC1(C)C [Alisol C 23-acetate]
Percentage of motility inhibition 0 h [1]: 0%
Percentage of motility inhibition 24 h [2]: 17%

CC(C)=CCC/C(C)=C/Cc1cc(-c2coc3cc(O)ccc3c2=O)ccc1O [Corylifol A]
Percentage of motility inhibition 0 h [1]: 40%
Percentage of motility inhibition 24 h [2]: 4%

Asiaticoside
Percentage of motility inhibition 0 h [1]: 6%
Percentage of motility inhibition 24 h [2]: 0%
